Laboratory results from patent publication US20260092061A1, “COMPOUNDS FOR TARGETED PROTEIN DEGRADATION” (Amphista Therapeutics Limited, priority 2022, published 2026).
Where two headings read alike, the source gives them in different places. Values belong to the molecule of their own block, whether it stands above or below them.

Molecular target: T1, BRD9 (Homo sapiens, UniProt Q9H8M2)
T1 sequence (Q9H8M2 1-597): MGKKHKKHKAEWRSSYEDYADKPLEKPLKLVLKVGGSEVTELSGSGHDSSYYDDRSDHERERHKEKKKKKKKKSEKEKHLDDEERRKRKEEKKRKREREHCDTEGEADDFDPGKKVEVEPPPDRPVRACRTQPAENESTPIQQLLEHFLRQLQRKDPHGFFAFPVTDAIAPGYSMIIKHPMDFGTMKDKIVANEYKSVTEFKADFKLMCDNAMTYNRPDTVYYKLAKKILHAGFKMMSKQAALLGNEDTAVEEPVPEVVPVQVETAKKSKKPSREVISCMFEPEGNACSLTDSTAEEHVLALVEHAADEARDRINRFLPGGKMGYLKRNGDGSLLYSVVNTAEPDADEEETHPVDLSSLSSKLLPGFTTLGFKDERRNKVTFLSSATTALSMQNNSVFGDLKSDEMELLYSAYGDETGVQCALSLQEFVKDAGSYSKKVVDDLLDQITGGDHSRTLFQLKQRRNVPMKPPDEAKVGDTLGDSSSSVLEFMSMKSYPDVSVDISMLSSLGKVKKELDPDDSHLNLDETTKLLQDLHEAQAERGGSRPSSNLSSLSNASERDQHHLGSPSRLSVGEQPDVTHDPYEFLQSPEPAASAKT
Test: Degradation of BRD9 (IF), immunofluorescence in MV4-11 cells, 24 hours (Assay Protocol 2)
Assay type: cell-based
Parameters: A suspension of MV4-11 cells (ATCC CRL-9591) was prepared; host or cells: MV4-11
Settings: BRD9 degradation
In short: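 % BRD9 remaining, scaled between DMSO (high) and 100 nM CFT-8634 (low) control wells, derives from mean Alexa 647 contrast in central nuclei by high-content imaging. MV4-11 cells had 24 h compound exposure at 37° C. before PFA fixation, Triton permeabilisation and anti-BRD9 E4Q3F immunostaining.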

[1] = Assay protocol 2, read-out: DC50
[2] = MV4-11, Assay protocol 2, read-out: Dmax

Compound: COc1cc(-c2cn(C)c(=O)c(C)c2C)cc(OC)c1CN1CCN(Cc2cccc3c2CCN(C(=O)/C(C#N)=C/C2CCCC2)C3C)CC1 (mixture of isomers) [Compound B90, (E/Z)-3-cyclopentyl-2-(5-((4-(2,6-dimethoxy-4-(1,4,5-trimethyl-6-oxo-1,6-dihydropyridin-3-yl)benzyl)piperazin-1-yl)methyl)-1-methyl-1,2,3,4-tetrahydroisoquinoline-2-carbonyl)acrylonitrile]
DC50 [1]: 10 to 25 nM | Dmax [2]: 40 to 70%

Compound: COc1cc(-c2cn(C)c(=O)c(C)c2C)ccc1CN1CCN(Cc2cccc3c2CCN(C(=O)/C(C#N)=C/C(C)(C)C)C3C)C2(CC2)C1 (mixture of isomers) [Compound B147, (E/Z)-2-(5-((7-(2-methoxy-4-(1,4,5-trimethyl-6-oxo-1,6-dihydropyridin-3-yl)benzyl)-4,7-diazaspiro[2.5]octan-4-yl)methyl)-1-methyl-1,2,3,4-tetrahydroisoquinoline-2-carbonyl)-4,4-dimethylpent-2-enenitrile]
DC50 [1]: 1.25 to 10 nM | Dmax [2]: > 75%

Compound: COc1cc(-c2cn(C)c(=O)c(C)c2C)cc(OC)c1CN1C[C@H](C)N(Cc2cccc3c2CCN(C(=O)/C(C#N)=C/C(C)(C)C)C3C)[C@@H](C)C1 (mixture of isomers) [Compound B100, (E/Z)-2-(5-(((2S,6S)-4-(2,6-dimethoxy-4-(1,4,5-trimethyl-6-oxo-1,6-dihydropyridin-3-yl)benzyl)-2,6-dimethylpiperazin-1-yl)methyl)-1-methyl-1,2,3,4-tetrahydroisoquinoline-2-carbonyl)-4,4-dimethylpent-2-enenitrile]
DC50 [1]: 25 to 1000 nM | Dmax [2]: 70 to 75%

Compound: CC[C@@H]1CN(Cc2cccc3c2CCN(C(=O)/C(C#N)=C/C(C)(C)C)C3C)CCN1Cc1c(OC)cc(-c2cn(C)c(=O)c(C)c2C)cc1OC (mixture of isomers) [Compound B120, (E/Z)-2-(5-(((R)-4-(2,6-dimethoxy-4-(1,4,5-trimethyl-6-oxo-1,6-dihydropyridin-3-yl)benzyl)-3-ethylpiperazin-1-yl)methyl)-1-methyl-1,2,3,4-tetrahydroisoquinoline-2-carbonyl)-4,4-dimethylpent-2-enenitrile]
DC50 [1]: 1.25 to 10 nM | Dmax [2]: 70 to 75%

Compound: COc1cc(-c2cn(C)c(=O)c(C)c2C)cc(OC)c1CN1CCN(Cc2ccc3c(c2)[C@@H](C)N(C(=O)/C(C#N)=C/C(C)(C)C)CC3)CC12CC2 (mixture of isomers) [Compound B199, (E/Z)-2-(7-((4-(2,6-dimethoxy-4-(1,4,5-trimethyl-6-oxo-1,6-dihydropyridin-3yl)benzyl)-4,7-diazaspiro[2.5]octan-7-yl)methyl)-1-methyl-1,2,3,4-tetrahydroisoquinoline-2-carbonyl)-4,4-dimethylpent-2-enenitrile]
DC50 [1]: 25 to 1000 nM | Dmax [2]: 40 to 70%

Compound: COc1cc(-c2cn(C)c(=O)c(C)c2C)cc(OC)c1CN1CCN(Cc2cccc3c2CCN(C(=O)/C(C#N)=C/C(C)(C)C)C3C)C2(CCC2)C1 (mixture of isomers) [Compound B130, (E/Z)-2-(5-((8-(2,6-dimethoxy-4-(1,4,5-trimethyl-6-oxo-1,6-dihydropyridin-3-yl)benzyl)-5,8-diazaspiro[3.5]nonan-5-yl)methyl)-1-methyl-1,2,3,4-tetrahydroisoquinoline-2-carbonyl)-4,4-dimethylpent-2-enenitrile]
DC50 [1]: 10 to 25 nM | Dmax [2]: > 75%

Compound: COc1cc(-c2cn(C)c(=O)c(C)c2C)cc(OC)c1CN1CCN(Cc2cccc3c2CCN(C(=O)/C(C#N)=C/C2CCC(F)(F)CC2)C3C)CC1 (mixture of isomers) [Compound B72, (E/Z)-3-(4,4-difluorocyclohexyl)-2-(5-((4-(2,6-dimethoxy-4-(1,4,5-trimethyl-6-oxo-1,6-dihydropyridin-3-yl)benzyl)piperazin-1-yl)methyl)-1-methyl-1,2,3,4-tetrahydroisoquinoline-2-carbonyl)acrylonitrile]
DC50 [1]: 1.25 to 10 nM | Dmax [2]: 40 to 70%

The remaining lines, values ahead:

DC50 [1]: 1.25 to 10 nM | Dmax [2]: 40 to 70%
Compound: COc1cc(-c2cn(C)c(=O)c(C)c2C)cc(OC)c1CN1CCC(CN(C)c2ccc3c(c2)C(C)N(C(=O)/C(C#N)=C/C(C)(C)C)CC3)CC1 (stereo not drawn) [Compound C46]

DC50 [1]: 1.25 to 10 nM | Dmax [2]: 70 to 75%
Compound: COc1cc(-c2cn(C)c(=O)c(C)c2C)cc(OC)c1CN1CC(N(C)c2ccc3c(c2)[C@H](C)N(C(=O)/C(C#N)=C/C(C)(C)C)CC3)C1 (single isomer, unassigned) [Compound C44]

DC50 [1]: 1.25 to 10 nM | Dmax [2]: 40 to 70%
Compound: COc1cc(-c2cn(C)c(=O)c(C)c2C)cc(OC)c1CN1CCC(Cc2cccc3c2CCN(C(=O)/C(C#N)=C/C(C)(C)C)[C@H]3C)CC1 (single isomer, unassigned) [Compound C59, (E/Z)-2-(5-((1-(2,6-dimethoxy-4-(1,4,5-trimethyl-6-oxo-1,6-dihydropyridin-3-yl)benzyl)piperidin-4-yl)methyl)-1-methyl-1,2,3,4-tetrahydroisoquinoline-2-carbonyl)-4,4-dimethylpent-2-enenitrile]

Dmax (MV4-11, Table 4, determined according to Assay Protocol 2, read-out: Dmax^2): > 70% | DC50 (Table 4, determined according to Assay Protocol 2, read-out: DC50^2): > 200 nM
Compound: COc1cc(-c2cn(C)c(=O)c(C)c2C)cc(OC)c1CN(C)C1CCN(C(=O)/C(C#N)=C/c2cccc(Br)n2)CC1 [BRD9z, (E/Z)-3-(6-bromopyridin-2-yl)-2-(4-((2,6-dimethoxy-4-(1,4,5-trimethyl-6-oxo-1,6-dihydropyridin-3-yl)benzyl)(methyl)amino)piperidine-1-carbonyl)acrylonitrile]

DC50 [1]: 25 to 1000 nM | Dmax [2]: 40 to 70%
Compound: CCC[C@@H]1c2cccc(CN3CCN(Cc4c(OC)cc(-c5cn(C)c(=O)c(C)c5C)cc4OC)CC34CC4)c2CCN1C(=O)/C(C#N)=C/C(C)(C)C (single isomer, unassigned) [Compound C101, (E/Z)-2-(5-((7-(2,6-dimethoxy-4-(1,4,5-trimethyl-6-oxo-1,6-dihydropyridin-3-yl)benzyl)-4,7-diazaspiro[2.5]octan-4-yl)methyl)-1-propyl-1,2,3,4-tetrahydroisoquinoline-2-carbonyl)-4,4-dimethylpent-2-enenitrile]

DC50 [1]: < 1.25 nM | Dmax [2]: > 75%
Compound: CC[C@@H]1c2cccc(CN3CCN(Cc4c(OC)cc(-c5cn(C)c(=O)c(C)c5C)cc4OC)CC34CC4)c2CCN1C(=O)/C(C#N)=C/C(C)(C)CF (single isomer, unassigned) [Compound C93, (E/Z)-2-(5-((7-(2,6-dimethoxy-4-(1,4,5-trimethyl-6-oxo-1,6-dihydropyridin-3-yl)benzyl)-4,7-diazaspiro[2.5]octan-4-yl)methyl)-1-ethyl-1,2,3,4-tetrahydroisoquinoline-2-carbonyl)-5-fluoro-4,4-dimethylpent-2-enenitrile]

Dmax (Assay protocol 2): +++ (+++ = ≥75%) | DC50 [1]: < 1.25 nM
Compound: COc1cc(-c2cn(C)c(=O)c(C)c2C)cc(OC)c1CN1CCN(Cc2cccc3c2CCN(C(=O)/C(C#N)=C/C(C)(C)CF)C3C(C)C)C2(CC2)C1 (single isomer, unassigned) [Compound C77, (E/Z)-2-(5-((7-(2,6-dimethoxy-4-(1,4,5-trimethyl-6-oxo-1,6-dihydropyridin-3-yl)benzyl)-4,7-diazaspiro[2.5]octan-4-yl)methyl)-1-isopropyl-1,2,3,4-tetrahydroisoquinoline-2-carbonyl)-5-fluoro-4,4-dimethylpent-2-enenitrile]

DC50 [1]: 25 to 1000 nM | Dmax [2]: > 75%
Compound: COc1cc(-c2cn(C)c(=O)c(C)c2C)ccc1OC1CCC(Cc2cccc3c2CCN(C(=O)C(C#N)=CC(C)(C)N2CCN(C4COC4)CC2)C3C(C)C)CC1 (single isomer, unassigned) [Compound C86]
